# According to ChEMBL document CHEMBL3885881, “DrugMatrix”:
# Species on record: Rattus norvegicus
# Assay: DrugMatrix - Regimen: Daily Repeat
# Type: toxicity, organism-based, Sprague-Dawley
# Parameters: regimen Daily Repeat, gender Male, age 6-8 weeks
# Conditions: in vivo, po, route oral GAVAGE, vehicle .5 % CMC; for BASOPHIL / EOSINOPHIL / ERYTHROCYTE COUNT / HEMATOCRIT / HEMOGLOBIN / LEUKOCYTE COUNT / LYMPHOCYTE / MEAN CORPUSCULAR HEMOGLOBIN / MEAN CORPUSCULAR HEMOGLOBIN CONCENTRATION / MEAN CORPUSCULAR VOLUME / MONOCYTE / NEUTROPHIL / PLATELET COUNT: tissue Blood; for ALANINE AMINOTRANSFERASE / ALBUMIN / ALKALINE PHOSPHATASE / ASPARTATE AMINOTRANSFERASE / BLOOD UREA NITROGEN / CHLORIDE / CHOLESTEROL / CREATINE PHOSPHOKINASE / CREATININE / GLUCOSE / PHOSPHORUS / POTASSIUM / SODIUM / TOTAL BILIRUBIN / TOTAL PROTEIN: tissue Plasma
# [1] = 0 mg/kg, 72 h, dose level Control, time 3 day
# [2] = 0 mg/kg, 120 h, dose level Control, time 5 day
# [3] = 45 mg/kg, 72 h, dose level Low, time 3 day
# [4] = 45 mg/kg, 120 h, dose level Low, time 5 day
structure (smiles),measurement,setting,value
Nc1ccc(C(=O)O)c(O)c1 [AMINOSALICYLIC ACID],BASOPHIL,[1],0%
same,EOSINOPHIL,[1],0%
same,ERYTHROCYTE COUNT,[1],6.34 x10E6/uL
same,HEMATOCRIT,[1],37.62%
same,HEMOGLOBIN,[1],14.82 G/DL
same,LEUKOCYTE COUNT,[1],11.18 x10E3/uL
same,LYMPHOCYTE,[1],87.5%
same,MEAN CORPUSCULAR HEMOGLOBIN,[1],23.48 pg
same,MEAN CORPUSCULAR HEMOGLOBIN CONCENTRATION,[1],39.5 G/DL
same,MEAN CORPUSCULAR VOLUME,[1],59.45 fL
same,MONOCYTE,[1],1.67%
same,NEUTROPHIL,[1],10.83%
same,PLATELET COUNT,[1],1074.83 x10E3/uL
same,ALANINE AMINOTRANSFERASE,[1],36.5 u/L
same,ALBUMIN,[1],3.9 G/DL
same,ALKALINE PHOSPHATASE,[1],370.17 u/L
same,ASPARTATE AMINOTRANSFERASE,[1],63.17 u/L
same,BLOOD UREA NITROGEN,[1],16.83 mg/dL
same,CHLORIDE,[1],99.33 MEQ/L
same,CHOLESTEROL,[1],64.33 mg/dL
same,CREATINE PHOSPHOKINASE,[1],127 u/L
same,CREATININE,[1],0.55 mg/dL
same,GLUCOSE,[1],173.5 mg/dL
same,PHOSPHORUS,[1],10.08 mg/dL
same,POTASSIUM,[1],6.23 MEQ/L
same,SODIUM,[1],143.5 MEQ/L
same,TOTAL BILIRUBIN,[1],0.52 mg/dL
same,TOTAL PROTEIN,[1],6.35 G/DL
same,BASOPHIL,[2],0%
same,EOSINOPHIL,[2],0.17%
same,ERYTHROCYTE COUNT,[2],6.12 x10E6/uL
same,HEMATOCRIT,[2],37.08%
same,HEMOGLOBIN,[2],14.82 G/DL
same,LEUKOCYTE COUNT,[2],11.87 x10E3/uL
same,LYMPHOCYTE,[2],83.33%
same,MEAN CORPUSCULAR HEMOGLOBIN,[2],24.25 pg
same,MEAN CORPUSCULAR HEMOGLOBIN CONCENTRATION,[2],39.97 G/DL
same,MEAN CORPUSCULAR VOLUME,[2],60.65 fL
same,MONOCYTE,[2],1.5%
same,NEUTROPHIL,[2],15%
same,PLATELET COUNT,[2],1042.83 x10E3/uL
same,ALANINE AMINOTRANSFERASE,[2],46 u/L
same,ALBUMIN,[2],3.82 G/DL
same,ALKALINE PHOSPHATASE,[2],369.5 u/L
same,ASPARTATE AMINOTRANSFERASE,[2],65 u/L
same,BLOOD UREA NITROGEN,[2],16.33 mg/dL
same,CHLORIDE,[2],100.67 MEQ/L
same,CHOLESTEROL,[2],57.17 mg/dL
same,CREATINE PHOSPHOKINASE,[2],130 u/L
same,CREATININE,[2],0.53 mg/dL
same,GLUCOSE,[2],163.33 mg/dL
same,PHOSPHORUS,[2],9.53 mg/dL
same,POTASSIUM,[2],6.27 MEQ/L
same,SODIUM,[2],144.83 MEQ/L
same,TOTAL BILIRUBIN,[2],0.55 mg/dL
same,TOTAL PROTEIN,[2],6.32 G/DL
same,BASOPHIL,[3],0%
same,EOSINOPHIL,[3],0%
same,ERYTHROCYTE COUNT,[3],6.2 x10E6/uL
same,HEMATOCRIT,[3],36.9%
same,HEMOGLOBIN,[3],14.43 G/DL
same,LEUKOCYTE COUNT,[3],13.37 x10E3/uL
same,LYMPHOCYTE,[3],88%
same,MEAN CORPUSCULAR HEMOGLOBIN,[3],23.3 pg
same,MEAN CORPUSCULAR HEMOGLOBIN CONCENTRATION,[3],39.13 G/DL
same,MEAN CORPUSCULAR VOLUME,[3],59.6 fL
same,MONOCYTE,[3],0.33%
same,NEUTROPHIL,[3],11.67%
same,PLATELET COUNT,[3],1203.67 x10E3/uL
same,ALANINE AMINOTRANSFERASE,[3],39.33 u/L
same,ALBUMIN,[3],3.83 G/DL
same,ALKALINE PHOSPHATASE,[3],358.33 u/L
same,ASPARTATE AMINOTRANSFERASE,[3],67.33 u/L
same,BLOOD UREA NITROGEN,[3],15 mg/dL
same,CHLORIDE,[3],99.33 MEQ/L
same,CHOLESTEROL,[3],71.33 mg/dL
same,CREATINE PHOSPHOKINASE,[3],117 u/L
same,CREATININE,[3],0.53 mg/dL
same,GLUCOSE,[3],180 mg/dL
same,PHOSPHORUS,[3],10.37 mg/dL
same,POTASSIUM,[3],6.03 MEQ/L
same,SODIUM,[3],143 MEQ/L
same,TOTAL BILIRUBIN,[3],0.47 mg/dL
same,TOTAL PROTEIN,[3],6.27 G/DL
same,BASOPHIL,[4],0%
same,EOSINOPHIL,[4],0%
same,ERYTHROCYTE COUNT,[4],5.82 x10E6/uL
same,HEMATOCRIT,[4],35.1%
same,HEMOGLOBIN,[4],14.37 G/DL
same,LEUKOCYTE COUNT,[4],14.2 x10E3/uL
same,LYMPHOCYTE,[4],88%
same,MEAN CORPUSCULAR HEMOGLOBIN,[4],24.67 pg
same,MEAN CORPUSCULAR HEMOGLOBIN CONCENTRATION,[4],40.97 G/DL
same,MEAN CORPUSCULAR VOLUME,[4],60.3 fL
same,MONOCYTE,[4],2%
same,NEUTROPHIL,[4],10%
same,PLATELET COUNT,[4],1018.67 x10E3/uL
same,ALANINE AMINOTRANSFERASE,[4],34.33 u/L
same,ALBUMIN,[4],3.6 G/DL
same,ALKALINE PHOSPHATASE,[4],348.33 u/L
same,ASPARTATE AMINOTRANSFERASE,[4],58 u/L
same,BLOOD UREA NITROGEN,[4],15 mg/dL
same,CHLORIDE,[4],101 MEQ/L
same,CHOLESTEROL,[4],62.67 mg/dL
same,CREATINE PHOSPHOKINASE,[4],122.67 u/L
same,CREATININE,[4],0.47 mg/dL
same,GLUCOSE,[4],155.33 mg/dL
same,PHOSPHORUS,[4],10 mg/dL
same,POTASSIUM,[4],6.3 MEQ/L
same,SODIUM,[4],144.67 MEQ/L
same,TOTAL BILIRUBIN,[4],0.37 mg/dL
same,TOTAL PROTEIN,[4],5.8 G/DL
